# Reference: patent US11111500B2, “Mutated protoporphyrinogen IX oxidase (PPX) genes” (CIBUS US LLC, priority 2010, dated 2021)
# Key:
# [1] = tested on: potato plastidal PPX; experiment: Tolerance to saflufenacil of HemG mutant E. coli complemented with potato plastidal PPX (plate based selection, colony count); assay type: cell-based, Solanum tuberosum
# Description: StcPPX1, less its chloroplast transit peptide was cloned from cDNA into Cibus' proprietary functional screening vector. This vector may be used both for functional screening, and for GRON QC. The potato PPX genes were used to complement the HemG mutant strain of E. coli, which lacks a functional HemG gene, a bacterial homolog of PPX. Without a complementing gene, the media must be supplemented with hematin for E. coli growth.
# In order to assess mutations that confer tolerance to PPX inhibitors such as Chateau (flumioxazin-Valent/Sumitomo), Naja (diphenylether—MAI) or Kixor (saflufenacil—BASF). Pure active ingredients for the PPX inhibiting herbicides Chateau (flumioxazin—Valent/Sumitomo), Spartan (sulfentrazone—FMC) and Kixor/Sharpen (saflufenacil—BASF) were obtained. […] This was further refined, and 0.75 mM sulfentrazone was also used to select for tolerance. […] All potato mitochondrial PPX genes and alleles were tested for natural tolerance to sulfentrazone and flumioxazin, but none were tolerant.
# Tolerance of all possible amino acid substitutions at each position displaying tolerance to sulfentrazone or flumioxazin were tested. Next, single amino acid substitutions were combined in all permutations and combinations to assess complementation and herbicide tolerance.
# [2] = tested on: leaf disc explants of in vitro grown potato plants; experiment: Leaf disk kill curve (callus formation in leaf disc explants); assay type: cell-based; settings: solid Haberlach culture medium, 1% DMSO
# Description: Aimed at establish the concentration of sulfentrazone that will inhibit callus formation in leaf disc explants, leaf discs were punched with a sterile hole punch from 5 weeks old in vitro grown potato plants. The leaf discs were cultured in petri dishes containing solid Haberlach culture medium containing various concentrations of Sulfentrazone in a final concentration of 1% DMSO. Six leaf discs cultured at each herbicide concentration. Plates were sealed with micropore tape and incubated at room temperature (approximately 23° C.). In an initial experiment, 7.8 μM sulfentrazone, the lowest concentration tested in that experiment, was sufficient to stop callus formations and bleach all leaf discs within 20 days. […] Similar leaf disc kill curve experiments were performed using saflufenacil where 0.5 μM of this herbicide was sufficient to inhibit callus formation in almost all leaf discs after 20 days.
smiles,measurement,setting,value
CC(C)N(C)S(=O)(=O)NC(=O)c1cc(-n2c(=O)cc(C(F)(F)F)n(C)c2=O)c(F)cc1Cl [saflufenacil],saflufenacil concentration with no growth of the wildtype construct,[1],0.3 mM
same,concentration sufficient to inhibit callus formation in almost all leaf discs after 20 days,[2],0.5 µM
